{"source": "patent EP3138561A1", "about": "(priority 2014, dated 2015)", "key": {"[1]": {"test_system": "Burkholderia ambifaria", "format": "cell-based"}, "[2]": {"test_system": "Burkholderia cepacia", "format": "cell-based"}, "[3]": {"test_system": "Burkholderia gladioli", "format": "cell-based"}, "[4]": {"test_system": "Burkholderia pyrrocinia", "format": "cell-based"}, "[5]": {"test_system": "Burkholderia vietnamiensis", "format": "cell-based"}, "[6]": {"test_system": "Burkholderia mallei", "format": "cell-based"}, "[7]": {"test_system": "Burkholderia stabilis", "format": "cell-based"}, "[8]": {"test_system": "Burkholderia pseudomallei", "format": "cell-based"}, "[9]": {"test_system": "Burkholderia dolosa", "format": "cell-based"}, "[10]": {"test_system": "Burkholderia cenocepacia", "format": "cell-based"}, "[11]": {"test_system": "Burkholderia multivorans", "format": "cell-based"}, "[12]": {"test_system": "Burkholderia anthina", "format": "cell-based"}, "[13]": {"test_system": "Pseudomonas aeruginosa", "details": "all three groups of patients; day 10 of therapy"}, "[14]": {"details": "white crystalline powder; cited from earlier work"}, "[15]": {"test_system": "bacteria of the Burkholderia genus", "format": "cell-based", "details": "all species of bacteria of the Burkholderia genus"}, "[16]": {"test_system": "Burkholderia cepacia", "details": "0.02% solution"}}, "note": "Like-named read-outs stand apart in the source and are kept apart here."}
{"compound": "N=C(NCCCCCCNC(=N)NC(=N)Nc1ccc(Cl)cc1)NC(=N)Nc1ccc(Cl)cc1", "note": "[chlorhexidine bigluconate]", "values": [{"measurement": "activity", "setting": "[1]; Concentration 0,2%", "value": "+"}, {"measurement": "activity", "setting": "[1]; Concentration 0.02%", "value": "-"}, {"measurement": "activity", "setting": "[1]; Concentration 0.05%", "value": "-"}, {"measurement": "activity", "setting": "[1]; Concentration 0.1%", "value": "+"}, {"measurement": "activity", "setting": "[2]; Concentration 0,2%", "value": "+"}, {"measurement": "activity", "setting": "[2]; Concentration 0.02%", "value": "-"}, {"measurement": "activity", "setting": "[2]; Concentration 0.05%", "value": "-"}, {"measurement": "activity", "setting": "[2]; Concentration 0.1%", "value": "+"}, {"measurement": "activity", "setting": "[3]; Concentration 0,2%", "value": "++"}, {"measurement": "activity", "setting": "[3]; Concentration 0.02%", "value": "+"}, {"measurement": "activity", "setting": "[3]; Concentration 0.05%", "value": "+"}, {"measurement": "activity", "setting": "[3]; Concentration 0.1%", "value": "+"}, {"measurement": "activity", "setting": "[4]; Concentration 0,2%", "value": "+"}, {"measurement": "activity", "setting": "[4]; Concentration 0.02%", "value": "-"}, {"measurement": "activity", "setting": "[4]; Concentration 0.05%", "value": "-"}, {"measurement": "activity", "setting": "[4]; Concentration 0.1%", "value": "+"}, {"measurement": "activity", "setting": "[5]; Concentration 0,2%", "value": "+"}, {"measurement": "activity", "setting": "[5]; Concentration 0.02%", "value": "-"}, {"measurement": "activity", "setting": "[5]; Concentration 0.05%", "value": "+"}, {"measurement": "activity", "setting": "[5]; Concentration 0.1%", "value": "+"}, {"measurement": "activity", "setting": "[6]; Concentration 0,2%", "value": "+"}, {"measurement": "activity", "setting": "[6]; Concentration 0.02%", "value": "-"}, {"measurement": "activity", "setting": "[6]; Concentration 0.05%", "value": "-"}, {"measurement": "activity", "setting": "[6]; Concentration 0.1%", "value": "+"}, {"measurement": "activity", "setting": "[7]; Concentration 0,2%", "value": "+"}, {"measurement": "activity", "setting": "[7]; Concentration 0.02%", "value": "+"}, {"measurement": "activity", "setting": "[7]; Concentration 0.05%", "value": "+"}, {"measurement": "activity", "setting": "[7]; Concentration 0.1%", "value": "+"}, {"measurement": "activity", "setting": "[8]; Concentration 0,2%", "value": "+"}, {"measurement": "activity", "setting": "[8]; Concentration 0.02%", "value": "-"}, {"measurement": "activity", "setting": "[8]; Concentration 0.05%", "value": "-"}, {"measurement": "activity", "setting": "[8]; Concentration 0.1%", "value": "+"}, {"measurement": "activity", "setting": "[9]; Concentration 0,2%", "value": "++"}, {"measurement": "activity", "setting": "[9]; Concentration 0.02%", "value": "+"}, {"measurement": "activity", "setting": "[9]; Concentration 0.05%", "value": "+"}, {"measurement": "activity", "setting": "[9]; Concentration 0.1%", "value": "++"}, {"measurement": "activity", "setting": "[10]; Concentration 0,2%", "value": "+"}, {"measurement": "activity", "setting": "[10]; Concentration 0.02%", "value": "+"}, {"measurement": "activity", "setting": "[10]; Concentration 0.05%", "value": "+"}, {"measurement": "activity", "setting": "[10]; Concentration 0.1%", "value": "+"}, {"measurement": "activity", "setting": "[11]; Concentration 0,2%", "value": "++"}, {"measurement": "activity", "setting": "[11]; Concentration 0.02%", "value": "+"}, {"measurement": "activity", "setting": "[11]; Concentration 0.05%", "value": "+"}, {"measurement": "activity", "setting": "[11]; Concentration 0.1%", "value": "++"}, {"measurement": "activity", "setting": "[12]; Concentration 0,2%", "value": "+"}, {"measurement": "activity", "setting": "[12]; Concentration 0.02%", "value": "-"}, {"measurement": "activity", "setting": "[12]; Concentration 0.05%", "value": "-"}, {"measurement": "activity", "setting": "[12]; Concentration 0.1%", "value": "+"}]}
{"compound": "CC1CCC(C(C)C)C(OC(=O)C[N+](C)(C)CCCCCCCCCC[N+](C)(C)CC(=O)OC2CC(C)CCC2C(C)C)C1", "note": "(stereo not drawn) [decamethoxine, 1,10-decamethylene-bis(N,N-dimethyl-menthoxycarbonylmethyl)ammonium dichloride]", "values": [{"measurement": "activity", "setting": "[1]; Concentration 0,2%", "value": "+++"}, {"measurement": "activity", "setting": "[1]; Concentration 0.02%", "value": "+"}, {"measurement": "activity", "setting": "[1]; Concentration 0.05%", "value": "++"}, {"measurement": "activity", "setting": "[1]; Concentration 0.1%", "value": "+++"}, {"measurement": "activity", "setting": "[2]; Concentration 0,2%", "value": "+++"}, {"measurement": "activity", "setting": "[2]; Concentration 0.02%", "value": "+"}, {"measurement": "activity", "setting": "[2]; Concentration 0.05%", "value": "++"}, {"measurement": "activity", "setting": "[2]; Concentration 0.1%", "value": "+++"}, {"measurement": "activity", "setting": "[3]; Concentration 0,2%", "value": "+++"}, {"measurement": "activity", "setting": "[3]; Concentration 0.02%", "value": "+"}, {"measurement": "activity", "setting": "[3]; Concentration 0.05%", "value": "++"}, {"measurement": "activity", "setting": "[3]; Concentration 0.1%", "value": "+++"}, {"measurement": "activity", "setting": "[4]; Concentration 0,2%", "value": "+++"}, {"measurement": "activity", "setting": "[4]; Concentration 0.02%", "value": "+"}, {"measurement": "activity", "setting": "[4]; Concentration 0.05%", "value": "++"}, {"measurement": "activity", "setting": "[4]; Concentration 0.1%", "value": "+++"}, {"measurement": "activity", "setting": "[5]; Concentration 0,2%", "value": "+++"}, {"measurement": "activity", "setting": "[5]; Concentration 0.02%", "value": "+"}, {"measurement": "activity", "setting": "[5]; Concentration 0.05%", "value": "++"}, {"measurement": "activity", "setting": "[5]; Concentration 0.1%", "value": "+++"}, {"measurement": "activity", "setting": "[6]; Concentration 0,2%", "value": "+++"}, {"measurement": "activity", "setting": "[6]; Concentration 0.02%", "value": "+"}, {"measurement": "activity", "setting": "[6]; Concentration 0.05%", "value": "++"}, {"measurement": "activity", "setting": "[6]; Concentration 0.1%", "value": "+++"}, {"measurement": "clinical outcome (clinical, laboratory and functional indices)", "setting": "[13]", "value": "the patients were cured"}, {"measurement": "solubility in water", "setting": "[14]", "value": "readily soluble in water"}, {"measurement": "activity", "setting": "[7]; Concentration 0,2%", "value": "+++"}, {"measurement": "activity", "setting": "[7]; Concentration 0.02%", "value": "+"}, {"measurement": "activity", "setting": "[7]; Concentration 0.05%", "value": "++"}, {"measurement": "activity", "setting": "[7]; Concentration 0.1%", "value": "+++"}, {"measurement": "activity", "setting": "[8]; Concentration 0,2%", "value": "+++"}, {"measurement": "activity", "setting": "[8]; Concentration 0.02%", "value": "+"}, {"measurement": "activity", "setting": "[8]; Concentration 0.05%", "value": "++"}, {"measurement": "activity", "setting": "[8]; Concentration 0.1%", "value": "+++"}, {"measurement": "activity", "setting": "[9]; Concentration 0,2%", "value": "+++"}, {"measurement": "activity", "setting": "[9]; Concentration 0.02%", "value": "+"}, {"measurement": "activity", "setting": "[9]; Concentration 0.05%", "value": "++"}, {"measurement": "activity", "setting": "[9]; Concentration 0.1%", "value": "+++"}, {"measurement": "activity", "setting": "[10]; Concentration 0,2%", "value": "+++"}, {"measurement": "activity", "setting": "[10]; Concentration 0.02%", "value": "+"}, {"measurement": "activity", "setting": "[10]; Concentration 0.05%", "value": "++"}, {"measurement": "activity", "setting": "[10]; Concentration 0.1%", "value": "+++"}, {"measurement": "bactericidal activity", "setting": "[15]", "value": "exhibits bactericidal activity"}, {"measurement": "activity", "setting": "[11]; Concentration 0,2%", "value": "+++"}, {"measurement": "activity", "setting": "[11]; Concentration 0.02%", "value": "+"}, {"measurement": "activity", "setting": "[11]; Concentration 0.05%", "value": "++"}, {"measurement": "activity", "setting": "[11]; Concentration 0.1%", "value": "+++"}, {"measurement": "Mean therapy time", "setting": "[16]; ultrasonic inhalations", "value": 7, "unit": "days"}, {"measurement": "negative side effects making withdrawal necessary", "setting": "[16]; ultrasonic inhalations", "value": "No patients had negative side effects"}, {"measurement": "patients with positive effect after decamethoxine therapy", "setting": "[16]; ultrasonic inhalations", "value": 41, "unit": "%"}, {"measurement": "patients with body temperature normalized", "setting": "[16]; ultrasonic inhalations 5-20 ml 1-2 times daily, days 3-5", "value": 75, "unit": "%"}, {"measurement": "tolerance to the therapy", "setting": "[16]; ultrasonic inhalations, all patients", "value": "Good tolerance"}, {"measurement": "patients with persistent cough", "setting": "[16]; ultrasonic inhalations, days 3-5, character changed from \"strong\" to \"moderate\" or \"weak\"", "value": 75, "unit": "%"}, {"measurement": "patients in whom dyspnea persisted", "setting": "[16]; ultrasonic inhalations, days 3-5, characterized as \"insignificant\"", "value": 30, "unit": "%"}, {"measurement": "patients complaining of moderate cough", "setting": "[16]; ultrasonic inhalations, days 7-10", "value": 14, "unit": "%"}, {"measurement": "cases in which fine moist rales were heard", "setting": "[16]; ultrasonic inhalations, physical examination", "value": 43, "unit": "%"}, {"measurement": "activity", "setting": "[12]; Concentration 0,2%", "value": "+++"}, {"measurement": "activity", "setting": "[12]; Concentration 0.02%", "value": "+"}, {"measurement": "activity", "setting": "[12]; Concentration 0.05%", "value": "++"}, {"measurement": "activity", "setting": "[12]; Concentration 0.1%", "value": "+++"}]}
